Data set [1] concerns NIT-1 cells. In words: Cell glucose uptake assay, NIT-1. The settings on record: NIT-1, 8a (3.125, 6.25, 12.5 μM) + insulin (100 nM) vs insulin only, 30 min. The format is cell-based. The procedure: The NIT-1 and β-TC-6 cells were added to the wells of 12-well plates and incubated overnight. Then the culture medium without FBS was incubated for 6 h, and different concentrations of 8a (3.125, 6.25, 12.5 μM), insulin (100 nM) or their combination were added for 30 min. Glucose uptake was determined using a Glucose Uptake Assay Kit (Jiancheng, Nanjing).

Data set [2] relates to islet α cells and β cells. Briefly: Immunofluorescence of pancreatic tissues (islet cell composition). The settings on record: mice, 8a 20 mg/kg, 2 weeks. It counts as in vivo. The procedure:
Male C57BL/6 mice (18 ± 2 g, 5 weeks old) were randomly divided into four groups with six mice per group. Acute drug toxicity test was performed. Mice were fasted for 6 h, and basal blood glucose and serum insulin levels were measured by using Accu-Check Performa (Roche, Swiss) glucose meter and Mouse Insulin ELISA kit (Solarbio). Compound 8a (10, 20, 30 mg/kg) was intraperitoneally injected for 10 min, followed by glucose (2 g/kg) intraperitoneally injected. The blood glucose concentration was measured at 30 and 60 min after glucose injection, and the serum insulin content of mice was measured at 60 min. Compound 8a was treated every other day for 2 weeks and tested for chronic drug toxicity. According to the above method, the serum glucose and insulin content of mice were measured.
Pancreatic tissue sections were incubated with primary antibodies overnight at 4 °C. The primary antibodies were as follows: anti-Glucagon (Cell Signaling Technology, Cat#2760), anti-insulin (Cell Signaling Technology, Cat#3014). The sections were stained with secondary antibodies (Alexa Fluor 488-conjugated anti-rabbit IgG, Abcam, Cat#ab150077) for 2 h at 4 °C in dark. After washing with PBS, the sections were stained with DAPI and observed by confocal microscopy (Leica TCS SP8 STED 3X).

For data set [3], the target named is T1, SIRT6 (Homo sapiens, UniProt Q8N6T7). Briefly: Fluor-De-Lys (FDL) SIRT6 deacetylation assay. It counts as biochemical. Also noted: The human full-length SIRT6 gene was inserted into the prokaryotic expression vector (pET-28a (+)); inferred from the pET-28a(+) vector, Ni-NTA purification and Ni-NTA biosensor loading); made in house; host or cells: Escherichia coli BL21 (DE3). As for the experimental part:
The human full-length SIRT6 gene was inserted into the prokaryotic expression vector (pET-28a (+)). The verified recombinant plasmid was transformed into Escherichia coli BL21 (DE3) expression strain and cultured overnight at 37 °C on LB plates supplemented with 50 μg/mL kanamycin. Single colonies were inoculated in fluid kanamycin-containing LB mediums. It was shaken at 160 rpm for 16 h at 37 °C and transferred to kanamycin-containing LB medium at a ratio of 1:100. It was shaken at 160 rpm at 37 °C until the OD600 reached 0.6. The Isopropyl-β-d-thiogalactopyranoside was added to make the final concentration of solution 0.5 mmol/L, cultured for 15 °C and 160 rpm for 24 h.
Bacterial liquid was harvested at 12,000 rpm at 4 °C for 20 min, and then re-suspended in Lysis buffer (20 mmol/L Hepes pH 7.5, 20 mmol/L imidazole, 5% Glycerol, 500 mmol/L NaCl). Cell pellets were disrupted by high-pressure crusher (JNBIO, Guangzhou China) and centrifuged (4 °C, 12000 rpm, for 20 min). Supernatant was collected and purified by FPLC with a 1 mL Ni–NTA Sepharose column (GE Healthcare, Stamford, USA). The SIRT6 protein was eluted at containing 50 mM, 100 mM, 150 mM, 200 mM, and 500 mM imidazole in elution buffer. The purified SIRT6 protein was dialyzed in dialysis buffer (50 mM Tris-HCl, 137 mM NaCl, 2.7 mM KCl, 1 mM MgCl2). The purified SIRT6 protein was analyzed by SDS-PAGE.
Fluor-De-Lys (FDL) assays were used for the examination of the deacetylation activities of sirtuins as described previously. For the detection of SIRT6 activity, the 50-μL reaction mixture contained 5 μM SIRT6, 2.5 mM NAD^+ (β-Nicotinamide adenine dinucleotide hydrate, Sigma, N1636), 75 μM RHKK-Ac-AMC (GL Biochem, Shanghai), compounds/DMSO, and assay buffer. The reactions were incubated at 37 °C for 2 h, added 50 μL stop solution (40 mM nicotinamide, 6 mg/mL trypsin) at 25 °C for 30 min. Fluorescence intensity was measured at an excitation wavelength of 360 nm and an emission wavelength of 460 nm. IC50 values were calculated in GraphPad Prism version 8.00.

Data set [4] concerns the target T1, SIRT6. In words: Fluor-De-Lys (FDL) SIRT6 deacetylation assay. The format is biochemical. Also on record: The human full-length SIRT6 gene was inserted into the prokaryotic expression vector (pET-28a (+)); inferred from the pET-28a(+) vector, Ni-NTA purification and Ni-NTA biosensor loading); made in house; host or cells: Escherichia coli BL21 (DE3). This is another data set of the same source.

Where [5] appears, read: Lineweaver–Burk plot, RHKK-Ac-AMC and NAD+ substrates.

SMILES strings stand for the structures.

Results on one compound are retold here after PMC10403574, “Discovery of a pyrrole-pyridinimidazole derivative as novel SIRT6 inhibitor for sensitizing pancreatic cancer to gemcitabine” (Cell Death & Disease, 2023).

T1 sequence (Q8N6T7 whole entry): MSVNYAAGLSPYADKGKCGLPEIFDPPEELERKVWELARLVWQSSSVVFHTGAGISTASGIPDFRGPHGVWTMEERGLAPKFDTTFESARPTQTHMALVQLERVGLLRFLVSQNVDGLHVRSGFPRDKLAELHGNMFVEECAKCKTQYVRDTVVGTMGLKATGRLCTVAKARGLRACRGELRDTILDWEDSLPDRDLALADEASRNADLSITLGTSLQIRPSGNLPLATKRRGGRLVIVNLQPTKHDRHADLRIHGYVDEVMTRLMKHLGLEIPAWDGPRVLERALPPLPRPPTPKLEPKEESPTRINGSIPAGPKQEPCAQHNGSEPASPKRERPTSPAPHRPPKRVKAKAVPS

Regarding `Br.CN(C)C(SCCCCCCn1cnc2c(-c3cc(Br)c(Br)[nH]3)nccc21)=[N+](C)C.[Cl-]` [Compound 8a], in data set [1], the glucose uptake result is recorded as “no significant effect”. In addition, the “number of α cells and β cells in the islets” value in data set [2] was “no significant difference”. Further, the IC50 in data set [3] came to 7.46 ± 0.79 µM. Moreover, in data set [3] (fixed concentration of 25 μM, RHKK-Ac-AMC, NI = no inhibition), the “Inhibition rate (%)” value is given as 75.6%. In data set [4] (setting [5]), the Km entry is reported as “did not alter” and the Vmax entry is listed as “obviously decreased”. In addition, the inhibition mode result in data set [4] (competition and enzymatic kinetic assays) is given as “non-competitive inhibitor”.
